Measurements taken from ChEMBL document CHEMBL4602708, “Discovery of CNS-Penetrant Apoptosis Signal-Regulating Kinase 1 (ASK1) Inhibitors” (ACS Med Chem Lett, 2020).

Columns and labels:
[1] = Volume of distribution at steady state in rat; assay type: ADME; conditions: in vivo, read-out: Vdss
[2] = tested on: P-gp (MDR1), human; assay: Apparent permeability from apical to basolateral side in MDCK-MDR1 cells transfected with human p-gp; assay type: ADME, cell-based, Canis lupus familiaris; conditions: dog

Vd [1] [L/kg] | Papp A→B [2] [×10⁻⁶ cm/s] | SMILES
2.7 | 1.8 | C[C@H]1CCCOc2nn(C)cc2C(=O)Nc2cccc(n2)-c2nncn21
2.3 | 5 | COc1nn(-c2cnccn2)cc1C(=O)Nc1cccc(-c2nncn2C(C)C)n1
